Data on four compounds can be found in patent US20080299140A1, “Immunogenic Composition and Peptide Sequences for Prevention and Treatment of an Hsv Condition” (priority 2002, published 2008).

The structures appear in SMILES notation. pIC50: −log10 of the molar value. Where two headings read alike, the source gives them in different places.

For test [1], the target named is T1, DRB4=HLA-DR(α1*0101,α4*0101) (Homo sapiens, UniProt P01903+P13762, G164S).
T1 construct: endogenous in cells
Put plainly: HLA-DR specific binding assay, DRB4 (DR53).

The target in test [2] is T2, DRB3=HLA-DR(α1*0101,α3*0101) (Homo sapiens, UniProt P01903+P79483).
T2 construct: endogenous in cells; host or cells: STEILIN or 0206AD (both typed DRB3*0101)
T2 sequence (P79483 30-266, other chains not shown): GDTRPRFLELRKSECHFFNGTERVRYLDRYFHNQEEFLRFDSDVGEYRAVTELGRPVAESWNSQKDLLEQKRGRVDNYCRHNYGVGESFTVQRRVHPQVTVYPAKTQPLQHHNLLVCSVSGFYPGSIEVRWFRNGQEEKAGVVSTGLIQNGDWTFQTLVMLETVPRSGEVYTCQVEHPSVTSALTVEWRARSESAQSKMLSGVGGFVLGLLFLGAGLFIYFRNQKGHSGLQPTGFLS
Put plainly: HLA-DR specific binding assay, DRB3 (DR52).

The target of test [3] is T3, DR3=HLA-DR(α1*0101,α1*0301) (Homo sapiens, UniProt P01903+P01911, A100K/A102G/A103R/A169T/F55Y/I96L/K41T/L162R/M171V/P40S/Q125H/Q178H/Q39Y/R42S/S66N/T106N/T262R/W38E/Y61H).
T3 construct: endogenous in cells; host or cells: STEILIN (EBV homozygous B cell line)
Put plainly: HLA-DR specific binding assay, DR3.

Test [4] deals with T4, DR13=HLA-DR(α1*0101,α1*1301) (Homo sapiens, UniProt P01903+P01911, A100E/A169T/K41T/L162R/M171V/P40S/Q125H/Q178H/Q39Y/Q99D/R42S/S66N/T262R/W38E/Y61H).
T4 construct: endogenous in cells; host or cells: 0206AD (EBV homozygous B cell line)
The test can be described thus: HLA-DR specific binding assay, DR13.

The next test concerns the target T5, I-E^d molecule (Mus musculus, UniProt P01904+P01915).
T5 sequence (P01904 26-255): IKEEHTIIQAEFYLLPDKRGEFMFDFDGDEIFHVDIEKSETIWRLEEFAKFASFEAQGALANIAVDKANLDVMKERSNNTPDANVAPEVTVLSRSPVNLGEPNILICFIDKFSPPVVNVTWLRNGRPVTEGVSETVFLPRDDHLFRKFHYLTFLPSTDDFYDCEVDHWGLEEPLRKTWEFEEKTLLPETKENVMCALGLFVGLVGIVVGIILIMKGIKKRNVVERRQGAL
T5 sequence (P01915 32-264): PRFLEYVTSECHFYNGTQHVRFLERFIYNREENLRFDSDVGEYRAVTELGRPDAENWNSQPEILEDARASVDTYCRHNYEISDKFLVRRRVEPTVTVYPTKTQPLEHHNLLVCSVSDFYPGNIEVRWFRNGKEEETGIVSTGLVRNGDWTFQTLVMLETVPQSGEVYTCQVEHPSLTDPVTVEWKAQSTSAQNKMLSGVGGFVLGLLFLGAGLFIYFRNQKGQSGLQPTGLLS
The test can be described thus: Binding to I-E^d molecule. Further details: species or system mice.

For test [5], the target named is T6, DR1=HLA-DR(α1*0101,α1*0101) (Homo sapiens, UniProt P01903+P01911, A100R/D57E/F55L/F60I/F76Y/I96L/L162R/M171V/P40L/Q125E/R42F/V115G/Y59C).
T6 construct: endogenous in cells; host or cells: EBV homozygous human B cell line
The test can be described thus: biochemical. It counts as binding. To be noted: […].

Test [6] has as its system HLA-DR and HLA-DP molecules. The test can be described thus: MHC class II binding assays, panel of twelve HLA class II molecules (number of alleles bound). To be noted: number of the twelve class II MHC alleles bound; title: Threshold 600 nM/5 alleles.
Another test has as its system T-cells. The test can be described thus: Cytokine analysis (IL-2, IL-4, IFN-γ sandwich ELISA). It counts as cell-based, mice. As for the experimental part:
T-cells were stimulated with either immunizing peptides (10 μg/ml), the irrelevant control peptide (10 μg/ml), UV-inactivated HSV-1 (MOI=3), or with ConA (0.5 μg/ml) as a positive control. Culture media were harvested 48 h (for IL-2) or 96 h (for IL-4 and IFN-γ) later and analyzed by specific sandwich ELISA following the manufacturer's instructions (PharMingen, San Diego, Calif.).

[7] abbreviates: IC50, DRD3, Class II MHC allele DRD3 (so in the source).
The mark [8] stands for this setting: IC50, DR3, Class II MHC allele DR3.
[9] abbreviates: Class II MHC allele DR1, read-out: IC50, DR1.
The mark [10] stands for this setting: read-out: IC50, DR13, Class II MHC allele DR13.
The mark [11] stands for this setting: T cells treated with Abs to CD4.
[12] abbreviates: T cells treated with Abs to CD8.
Setting [13] is: splenocyte derived T cells, no Abs, average of triplicates (+/- SD).

As to `CC[C@H](C)[C@H](NC(=O)[C@H](CO)NC(=O)[C@H](CC(=O)O)NC(=O)[C@@H](NC(=O)[C@@H](NC(=O)[C@@H](NC(=O)CNC(=O)[C@H](CCC(N)=O)NC(=O)[C@H](CCC(N)=O)NC(=O)[C@H](Cc1ccc(O)cc1)NC(=O)[C@H](C)NC(=O)[C@H](CCC(N)=O)NC(=O)[C@@H]1CCCN1C(=O)[C@H](CO)NC(=O)[C@H](CC(C)C)NC(=O)[C@H](CS)NC(=O)[C@H](C)NC(=O)[C@@H](N)CO)C(C)C)[C@@H](C)O)C(C)C)C(=O)NCC(=O)N[C@@H](CCSC)C(=O)N[C@@H](CC(C)C)C(=O)N1CCC[C@H]1C(=O)N[C@@H](CCCNC(=N)N)C(=O)N[C@@H](Cc1ccccc1)C(=O)N[C@H](C(=O)N1CCC[C@H]1C(=O)N[C@@H](CCC(=O)O)C(=O)N[C@@H](CC(N)=O)C(=O)N[C@@H](CCC(N)=O)C(=O)N[C@@H](CCCNC(=N)N)C(=O)N[C@H](C(=O)N[C@H](C(=O)N[C@@H](C)C(=O)N[C@H](C(=O)N[C@@H](Cc1ccc(O)cc1)C(=O)O)C(C)C)C(C)C)[C@@H](C)O)[C@@H](C)CC` [HSV 37], the pIC50 in test [1] is 5.43; in test [2] (setting [7]) it was 7.39; in test [2] (IC50 DRB3, Table V, […]), 7.39; in test [3] (setting [8]) it was 6.51; in test [3] (IC50 DR3, Table V, […]), 6.51; in test [4], 5.69. For the same compound, the negative logarithm of the IC50 (pIC50) in test [5] (Table V, read-out: IC50 DR1) is 8.40; in test [5] (setting [9]), 8.40. For the same compound, the “binding to I-E^d molecule” value on I-E^d molecule is “strong binders”. Also, in test [6], the Range turned out to be 9.
For `CC[C@H](C)[C@H](NC(=O)[C@H](CO)NC(=O)[C@@H]1CCCN1C(=O)[C@@H](NC(=O)[C@H](Cc1c[nH]cn1)NC(=O)[C@H](Cc1c[nH]c2ccccc12)NC(=O)[C@H](CC(N)=O)NC(=O)[C@@H]1CCCN1C(=O)[C@@H]1CCCN1C(=O)[C@@H](NC(=O)[C@H](CCC(N)=O)NC(=O)[C@@H]1CCCN1C(=O)[C@H](C)N)[C@@H](C)CC)[C@@H](C)CC)C(=O)N[C@@H](CCC(N)=O)C(=O)N[C@@H](CC(=O)O)C(=O)N[C@@H](C)C(=O)N[C@@H](C)C(=O)N[C@H](C(=O)N1CCC[C@H]1C(=O)N[C@@H](Cc1ccc(O)cc1)C(=O)N[C@@H](Cc1c[nH]cn1)C(=O)N1CCC[C@H]1C(=O)N1CCC[C@H]1C(=O)N[C@@H](C)C(=O)N[C@H](C(=O)N1CCC[C@H]1C(=O)N[C@@H](CC(N)=O)C(=O)N[C@@H](CC(N)=O)C(=O)N[C@@H](CCSC)C(=O)NCC(=O)N[C@@H](CC(C)C)C(=O)O)[C@@H](C)O)[C@@H](C)O` [HSV 35], the pIC50 was 5.49 in test [1]; 5.30 in test [2] (setting [7]); 5.30 in test [2] (IC50 DRB3, Table V, […]); 4.71 in test [3] (setting [8]); 4.71 in test [3] (IC50 DR3, Table V, […]); less than 4.00 in test [4]. Further, the pIC50 is less than 4.00 in test [4] (setting [10]); 5.50 in test [5] (Table V, read-out: IC50 DR1); 5.50 in test [5] (setting [9]). The “binding to I-E^d molecule” value on I-E^d molecule is “strong binders”. The compound also showed a Range in test [6] of 1.
With `CC[C@H](C)[C@H](NC(=O)[C@H](CCC(N)=O)NC(=O)[C@@H]1CCCN1C(=O)[C@H](C)NC(=O)[C@H](CCC(=O)O)NC(=O)[C@H](CO)NC(=O)[C@@H]1CCCN1C(=O)[C@H](C)NC(=O)[C@H](CC(N)=O)NC(=O)[C@H](CC(C)C)NC(=O)[C@H](CC(C)C)NC(=O)[C@@H](NC(=O)[C@H](CO)NC(=O)[C@H](CCCNC(=N)N)NC(=O)[C@H](CS)NC(=O)[C@H](C)NC(=O)[C@H](CCCNC(=N)N)NC(=O)[C@H](CCC(=O)O)NC(=O)[C@H](CC(C)C)NC(=O)[C@@H](NC(=O)[C@H](C)NC(=O)[C@H](Cc1ccc(O)cc1)NC(=O)[C@H](Cc1ccc(O)cc1)NC(=O)[C@@H](NC(=O)[C@@H](NC(=O)[C@@H](NC(=O)[C@@H]1CCCN1C(=O)[C@H](CC(C)C)NC(=O)[C@H](CO)NC(=O)[C@@H]1CCCN1C(=O)[C@@H]1CCCN1C(=O)[C@@H](N)CCC(N)=O)[C@@H](C)CC)[C@@H](C)O)C(C)C)C(C)C)C(C)C)C(=O)N[C@H](C(=O)N[C@@H](CCCNC(=N)N)C(=O)O)C(C)C` [HSV 36], the negative logarithm of the IC50 (pIC50) is 5.30 in test [2] (setting [7]); 5.30 in test [2] (IC50 DRB3, Table V, […]); 5.90 in test [3] (setting [8]); 5.90 in test [3] (IC50 DR3, Table V, […]); less than 4.00 in test [4]; less than 4.00 in test [4] (setting [10]). Also, the pIC50 in test [5] (Table V, read-out: IC50 DR1) was 8.52; in test [5] (setting [9]), 8.52. In the test on T-cells (setting [11]), the “IFNγ, Anti-CD4” value is recorded as 6 (+/−2) ng/ml. Also, in the test with T-cells (setting [11]), the “IL-2, Anti-CD4” value is listed as 22 (+/−2) pg/ml. The “IFNγ, Anti-CD8” value with T-cells (setting [12]) was 66 (+/−2) ng/ml. In the test with T-cells (setting [12]), the “IL-2, Anti-CD8” value was 88 (+/−5) pg/ml. Moreover, the “IFNγ, None” value in the test with T-cells (setting [13]) is listed as 60 (+/−4) ng/ml. The “IL-2, None” value in the test on T-cells (setting [13]) is reported as 92 (+/−5) pg/ml. In test [6], this compound gave a Range of 9.
Regarding `CC[C@H](C)[C@H](NC(=O)[C@@H]1CCCN1C(=O)[C@H](CS)NC(=O)[C@H](C)NC(=O)CNC(=O)[C@H](CC(C)C)NC(=O)[C@H](CO)NC(=O)[C@H](CCCCN)NC(=O)[C@@H](N)CC(N)=O)C(=O)N[C@@H](CCCNC(=N)N)C(=O)N[C@H](C(=O)N[C@@H](CCC(N)=O)C(=O)N1CCC[C@H]1C(=O)N[C@@H](CCCNC(=N)N)C(=O)N[C@@H](Cc1c[nH]c2ccccc12)C(=O)N[C@@H](CC(N)=O)C(=O)N[C@@H](Cc1ccc(O)cc1)C(=O)N[C@@H](Cc1ccc(O)cc1)C(=O)N[C@@H](CC(=O)O)C(=O)N[C@@H](CO)C(=O)N[C@@H](Cc1ccccc1)C(=O)N[C@@H](CO)C(=O)N[C@@H](C)C(=O)N[C@H](C(=O)N[C@@H](CO)C(=O)N[C@@H](CCC(=O)O)C(=O)N[C@@H](CC(=O)O)C(=O)N[C@@H](CC(N)=O)C(=O)N[C@@H](CC(C)C)C(=O)NCC(=O)N[C@@H](Cc1ccccc1)C(=O)N[C@@H](CC(C)C)C(=O)O)C(C)C)[C@@H](C)O` [HSV 33], the negative logarithm of the IC50 (pIC50) in test [1] is 6.50; in test [2] (setting [7]) it was 6.65; in test [2] (IC50 DRB3, Table V, […]) it was 6.65; in test [3] (setting [8]) it was 7.18; in test [3] (IC50 DR3, Table V, […]), 7.18; in test [4], 6.80. Also, the pIC50 in test [5] (Table V, read-out: IC50 DR1) is 7.28; in test [5] (setting [9]), 7.28. In addition, in test [6], the Range was 12.
